These results are taken from article PMC7726145, “Fine-tuning of lysine side chain modulates the activity of histone lysine methyltransferases” (Scientific Reports, 2020).

What all share (format): biochemical
Experiment [1] concerns the target T1, SETD7 (Homo sapiens, UniProt Q8WTS6).
T1 construct: SETD7 residues 1–366; His6 (N); made in house; host or cells: Escherichia coli Rosetta BL21 (DE3)pLysS
T1 sequence (Q8WTS6 1-366): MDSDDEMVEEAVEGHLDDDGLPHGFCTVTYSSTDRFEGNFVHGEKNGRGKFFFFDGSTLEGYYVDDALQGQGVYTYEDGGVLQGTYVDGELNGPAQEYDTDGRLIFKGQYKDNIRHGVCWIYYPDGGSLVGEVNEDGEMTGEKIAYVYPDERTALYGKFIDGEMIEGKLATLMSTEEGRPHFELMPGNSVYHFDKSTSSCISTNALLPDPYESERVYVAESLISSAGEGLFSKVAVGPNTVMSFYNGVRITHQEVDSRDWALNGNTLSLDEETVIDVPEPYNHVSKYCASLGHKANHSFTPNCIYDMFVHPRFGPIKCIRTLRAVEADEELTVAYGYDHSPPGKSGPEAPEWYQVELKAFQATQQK
Briefly: MALDI-TOF MS methylation assay with SETD7. The method, then: Histone peptides bearing the lysine analogues KO and KN were examined as substrates for the recombinantly expressed human KMTs using MALDI-TOF MS assays as a direct method to monitor histone methylation. We tested whether KO and KN can be methylated by di- and trimethyltransferases GLP and G9a, and monomethyltransferases SETD7 and SETD8. Samples containing the human KMT enzyme (2 µM), histone peptide (100 µM), and SAM (500 µM with GLP and G9a; 200 µM with SETD8 and SETD7) in Tris buffer (50 mM, pH 8.0) were incubated for 1 h at 37 °C. Following established enzymatic conditions[17]–[19],[21],[22], all lysine-containing histone peptides were efficiently methylated by the four KMTs (Fig. 5a,d,g,j, respectively). […] In the G9a assay, traces (< 5%) of the dimethylated species H3KO9me2 were also observed. […] We further analyzed the product distribution of these two peptide substrates with G9a and GLP throughout the time course of methylation.
Red spectra show 1 h reactions at 37 °C including KMTs (2 µM), histone peptide (100 µM) and SAM (500 µM for GLP/G9a and 200 µM for SETD8/SED7) and black spectra the no-enzyme controls.
The lack of methylation of these two analogues with SETD7 indicated a selectivity between KMTs.
(§1) Human KMTs enzymes were expressed and purified as previously described[36]–[38]. The methyltransferase plasmid (SETD8 residues 186–352, SETD7 residues 1–366, GLP residues 951–1235, G9a residues 913–1193) transformed into Escherichia coli Rosetta BL21 (DE3)pLysS cells. Cultures were grown at 37 °C in LB media containing kanamycin and chloramphenicol. Cells were grown to an OD600 of 0.5–0.6 (approximately 2.5–3 h), at which point they induced by isopropyl β-D-1-thiogalactopyranoside (IPTG) and they were transferred to a temperature of 16 °C overnight. After letting the cells grow at this temperature, they were then harvested and lysed by sonication. The lysate was centrifuged at high-speed to remove unbroken cells. The supernatant was then centrifuged to further clean the lysate. Purification of the N-terminally his6-tagged KMTs was performed using Ni–NTA affinity chromatography column, which was prewashed with lysis buffer. Target KMT enzyme was then eluted using a linear gradient concentration of imidazole. The elute was then concentrated with centrifugal concentrators (Millipore). All KMT enzymes were further purified by gel filtration on a Superdex 75 column (GE Healthcare) on an AKTA system. Purified proteins were concentrated employing Amicon Ultra Centrifugal Filter Units (Millipore) with suitable molecular weight cutoffs. Proteins concentrations were determined using the Nanodrop DeNovix DS-11 spectrophotometer and the purity was monitored by SDS-PAGE on a 4–15% gradient polyacrylamide gel (Bio-Rad).
Histone methyltransferase assay was carried out as described in 30 µL final total volume[17]–[19],[21],[22]. In brief, purified KMTs enzymes (2 µM of each enzyme per each reaction) were incubated with 100 µM of purified histone peptides in the methyltransferase assay buffer Tris–HCl (pH 8.0) and methyl donor SAM (500 µM with GLP and G9a; 200 µM with SETD8 and SETD7) for 1 h at 37 °C. 3 µL of reaction mixture was quenched with an equal amount of MeOH (1:1 ratio). Then, 3 µL of this mixture was added to an equal amount volume of a standard α-cyano-4-hydroxycinnamic acid matrix solution for spotting on a MALDI plate (Stainless ground steel 96/12 Bruker-Daltonik, Bremen-Germany). The mass spectra of peptides were analyzed by MALDI-TOF MS. […]

Experiment [2] deals with T1, SETD7. Briefly: Inhibition of SETD7-catalyzed methylation of 14-mer H3K4. To be noted: for IC50: SETD7 200 nM, 14-mer H3K4 10 µM, inhibitor 1-200 µM, 4 repeats (dose-response of H3KO4). The method, then:
Residual activity assays monitoring the KMT-catalyzed methylation of the histone peptides were then carried out, aimed at providing competitive data of these two substrates as compared to the 14-mer H3K9 peptide for the active site of G9a/GLP, and to determine whether the two lysine analogues inhibit G9a- and GLP-catalyzed methylation of H3K9.
as §1
Supplementary Figure 19. […] Error bars represent the standard deviation from 4 repeats.

The next experiment deals with T2, SETD8 (Homo sapiens, UniProt Q9NQR1).
T2 construct: SETD8 residues 186–352; His6 (N); made in house; host or cells: Escherichia coli Rosetta BL21 (DE3)pLysS
T2 sequence (Q9NQR1 186-352 isoform Q9NQR1-2): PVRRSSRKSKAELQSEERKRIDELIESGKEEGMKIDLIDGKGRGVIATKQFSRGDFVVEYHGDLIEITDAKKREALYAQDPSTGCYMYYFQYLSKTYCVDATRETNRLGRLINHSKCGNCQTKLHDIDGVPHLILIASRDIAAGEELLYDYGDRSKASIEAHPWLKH
As to the kind of experiment: SETD8 kinetics by MALDI-TOF MS enzymatic assay. The method, then:
To determine the substrate specificity of SETD8 towards the two histone peptides bearing the unnatural lysine analogues KO and KN, a kinetic investigation was carried out employing a MALDI-TOF MS enzymatic assay[17],[18],[21]. KMT-catalyzed methylation of the oxalysine- and azalysine-containing histone peptides was characterized by slower substrate conversion rates (kcat) compared to their respective natural sequences, a result that we attribute to their poorer nucleophilic character due to the electron-withdrawing properties of the O and NH moieties. Furthermore, a highly hydrophobic channel of the methyltransferases is poorly tailored for significant electrostatic changes in the hydrophobic nature of the lysine side chain, likely leading to a larger penalty for desolvation of γ-azalysine and γ-oxalysine. Combined with the altered Km values for H4KO20 and H4KN20, this translated into a generally slightly worse catalytic efficiency for these two lysine analogues.
as §1
Kinetics studies were performed as described[17],[18],[21]. A solution of histone peptide (0–300 μM), was added to a solution of SAM (116 μM) in assay buffer (50 mM Tris, pH 8.0) at room temperature (final volume of 100 μL). […]

The mark [3] stands for this setting: SETD7 2 µM, peptide 100 µM, SAM 200 µM, Tris 50 mM, pH 8.0, 1 h at 37 °C.
Setting [4] is: SETD8 2 µM, peptide 0–300 μM, SAM 116 μM, 50 mM Tris, pH 8.0, room temperature, 10 min, MALDI-TOF MS, value ± SD, replicates.

“Also recorded” adds a separate entry of the source.

Consider `C[C@H](N)C(=O)N[C@@H](CCCNC(=N)N)C(=O)N[C@H](C(=O)N[C@@H](COCCN)C(=O)N[C@@H](CCC(N)=O)C(=O)N[C@H](C(=O)N[C@@H](C)C(=O)N[C@@H](CCCNC(=N)N)C(=O)N[C@@H](CCCCN)C(=O)N[C@@H](CO)C(=O)N[C@H](C(=O)NCC(=O)NCC(=O)N[C@@H](CCCCN)C(=O)N[C@@H](C)C(N)=O)[C@@H](C)O)[C@@H](C)O)[C@@H](C)O` [H3KO4], for which, at SETD7 [1] (setting [3]), the “monomethylated species (traces) with SETD7” value is reported as < 5%. Also, on SETD7 [2], the concentration for half-maximal inhibition (IC50) (as a rule, the midpoint of a concentration-inhibition curve) amounted to 38.9 µM.
Consider `C[C@H](N)C(=O)N[C@@H](CCCNC(=N)N)C(=O)N[C@H](C(=O)N[C@@H](CNCCN)C(=O)N[C@@H](CCC(N)=O)C(=O)N[C@H](C(=O)N[C@@H](C)C(=O)N[C@@H](CCCNC(=N)N)C(=O)N[C@@H](CCCCN)C(=O)N[C@@H](CO)C(=O)N[C@H](C(=O)NCC(=O)NCC(=O)N[C@@H](CCCCN)C(=O)N[C@@H](C)C(N)=O)[C@@H](C)O)[C@@H](C)O)[C@@H](C)O` [H3KN4], for which, at SETD7 [1] (setting [3]), the “methylation with SETD7” value was “very low levels of methylation were detected; also recorded: significantly reduced” and the “monomethylated species (traces) with SETD7” value was < 5%. The “methylation with SETD7 at high concentration, 1 h” value on SETD7 [1] (SETD7 10 µM, SAM 1 mM, 37 °C, 1 h) is reported as “poorly catalyzed traces”. The “methylation with SETD7 at high concentration, 3 h” value at SETD7 [1] (SETD7 10 µM, SAM 1 mM, 37 °C, 3 h) was “poorly catalyzed traces; also recorded: only traces of H3KO4me and H3KN4me observed”. Also, at SETD7 [2] (14-mer H3K4 substrate), the “inhibition of SETD7 in words” value is “inactive”. For the same compound, the IC50 against SETD7 [2] is > 100 µM.
For the compound “GGAKRHRK^20VLRDNIQ [H4K20, native peptide fragment 13–27 of H4]”, on SETD8 (SETD8 2 µM, peptide 0–300 μM, SAM 116 μM, 50 mM Tris, pH 8.0, room temperature, 10 min, MALDI-TOF MS), the kcat/Km (in general, the second-order rate constant that governs catalysis at low substrate concentration) came to 86.8 M⁻¹ s⁻¹. Besides, on SETD8 (setting [4]), the Michaelis-Menten constant (Km) (usually the substrate concentration at which the rate is half of its maximum) is 104 ± 25.3 µM; the kcat (in general, the number of substrate molecules converted per active site and unit of time at saturation) was 0.009 ± 0.00183 s⁻¹. In addition, the “order in which SETD8 tolerates modifications at the γ position (kinetics)” value at SETD8 (comparison of kinetics data including H4KC20 of ref 18) was “H4K20 > H4KC20 > H4KN20 > H4KO20”.
